Laboratory results reported in patent US20060188485A1, “Autologous self-tolerance inducing cells of monocytic origin and their use in pharmaceutical preparations” (priority 2003, published 2006).

Test system: PHA-stimulated lymphocytes
Assay: Mixed lymphocyte culture with PHA-stimulated lymphocytes, 3[H]-thymidine incorporation
Format: cell-based, human
Details: 2 μmol 1-MT
Protocol: In order to clarify, whether the inhibitor of the enzyme indolamine-2,3-dioxygenase (IDO) 1-methyltryptophane (1-MT) influences the suppressor function of the TAIC generated in the “Mo” and “Mo+Ly” set ups (see Example 4), a variety of mixed lymphocyte cultures (MLC) with PHA (phytohaemagglutinine) stimulated T-cells in the presence and in the absence of 1-MT were established.
In these mixed lymphocyte cultures 50.000 lymphocytes with 2 μg PHA were transferred into the wells of a 96-well-plate, followed by a proliferation period over 144 hours (indicated as “PhaLy”). Lymphocytes only cultivated in medium without addition of PHA were run as a further control (indicated as “Ly”). […]
After 144 hours cultivation, all controls or co-cultures were further cultivated for 24 hours in the presence of ^3[H]-thymidine (“pulsed”) and thereafter the amount of radioactively labeled thymidine incorporated was determined as counts per minute (cpm), see FIG. 4. In this arrangement, the amount of the radio activity determined is a measure for the amount of labeled thymidine incorporated into the DNA, and therefore a measure for the proliferation rate of the lymphocytes. […]

Cn1cc(C[C@H](N)C(=O)O)c2ccccc21 [1-MT, 1-methyltryptophane]
influence of 1-MT on the suppressor function of the TAIC: increases the suppressor function of the TAIC synergistically | influence of 1-MT on the suppressor function of the TAIC (listed as 1-methyltryptophane): no influence
